This is an account of results in patent US12692322B2, “KRAS specific antibodies and uses thereof” (Genentech, Inc., priority 2020, dated 2026).

The structures appear in SMILES notation.

Assay [1] deals with SWII pocket of KRas^G12C-GDP and KRas^WT-GDP. Briefly: SPR of SWII ligands with SWII-blocked reference, with and without 2H11. It counts as binding, human. The method, then: Surface plasmon resonance (SPR) experiments with 2H11 anti-KRas antibody. A series S SA (streptavidin) chip was inserted into a Biacore T200 (GE Health Sciences). The instrument was primed into running buffer (50 mM HEPES pH 7.5, 150 mM NaCl, 0.2% (w/v) PEG-3350, 0.1% CM-dextran (w/v), 0.1 mM TCEP, 10 mM MgCl2, 100 nM GDP, and 2% (v/v) DMSO). KRas^G12C was pre-blocked at the 12 position with covalent binding KRas^G12C alkylator was captured to yield 2000-2500 response units (RU) on flow channel 1 (FC1) and FC3 to serve as the reference for KRas^WT and KRas^G12C and allow affinity measurement exclusively at the Switch II (SWII) pocket. KRas^WT or KRas^G12C was captured on FC2 and FC4 within 100 RU of the reference channel capture level and data was collected in FC 2-1, FC 4-3 mode. […] Analyte samples were tested […] in 2-fold dose response with 20-30 second contact time and 30 second dissociation. Data was analyzed in with a 1:1 affinity model in Biacore S200 Evaluation Software 1.0 and figures were made in Scrubber 2 (Biologic Software) (FIG. 5A and FIG. 5B).

The target of assay [2] is T1, alkylated KRas^G12C in H1171 KRas^G12C cells (Homo sapiens, UniProt P01116, G12C).
T1 construct: Immunoprecipitation of alkylated and un-alkylated KRas^G12C in H1171 KRAS^G12C mutant cancer cells; endogenous in cells; host or cells: H1171 (HCC1171) KRAS G12C mutant cancer cells
The assay can be described thus: Immunofluorescence and high content imaging. It counts as cell-based. As to conditions: treatment for 16 hours.
Description: Immunofluorescence and High Content Imaging Cells (20000 to 40000 cells per well depending on the cell line) were seeded into Poly-L-Lysine Coated 96-well plates (Cell Carrier Ultra; Perkin Elmer) and supplemented with complete medium (RPMI with 2% L-Glutamine and 10% FBS). The next day, cells were treated with KRas^G12C inhibitors at indicated concentrations and incubated for the indicated length of time. At the end of treatment, cells were washed twice with cold 1×PBS, fixed with 3% paraformaldehyde for 20 minutes at room temperature, washed for 10 minutes with 1×PBS, and the PFA was quenched with 50 mM NH4Cl for 10 minutes at room temperature. Cells were washed again with 1×PBS twice for 5 minutes, then permeabilized with 1× Perm/Wash Buffer (BD, Fisher Scientific) for 20 minutes at room temperature. Cells were then incubated with primary antibody diluted in Perm/Wash buffer at indicated concentration for 2 hours at room temperature. Cells were then washed three times with Perm/Wash buffer for 10 minutes each, and the incubated with conjugated fluorescence secondary antibody for 20 to 60 minutes (Alexa488 anti-human and Alexa647 anti-rabbit or anti-rat at 1:500 from Jackson ImmunoResearch Laboratories Inc.) 100 ml of 300 nM DAPI was added to each well for 15 minutes and then cells were washed twice with Perm/Wash buffer, and once with 1×PBS prior to imaging. […]

`C=CC(=O)N1CCN(c2ncnc3c(F)c(-c4c(O)cccc4F)c(Cl)cc23)CC1` (atropisomer, axis not shown) [ARS-1620, (R)-1-(4-(6-chloro-8-fluoro-7-(2-fluoro-6-hydroxyphenyl)quinazolin-4-yl)piperazin-1-yl)prop-2-en-1-one]: the “affinity of SWII covalent molecules in the presence versus absence of 2H11 anti-KRas antibody” value in assay [1] is given as “greatly enhanced”. The “alkylation of KRas^G12C by IF and immunoblot analysis” value in assay [2] is given as “almost complete alkylation”.
Take `C=CC(=O)N1CCN(c2ncnc3cc(-c4c(C)ccc5[nH]ncc45)c(Cl)cc23)CC1` (atropisomer, axis not shown) [GNE-1952, (R)-1-(4-(6-chloro-7-(5-methyl-TH-indazol-4-yl)quinazolin-4-yl)piperazin-1-yl)prop-2-en-1-one]: in assay [1], the “affinity of SWII covalent molecules in the presence versus absence of 2H11 anti-KRas antibody” value is “greatly enhanced”.
Same read-out and setting: under `C=CC(=O)N1CC(N2CCN(C(=O)CNc3cc(C4(C)CC4)c(Cl)cc3O)CC2)C1` [ARS-853, 1-(3-(4-((4-chloro-2-hydroxy-5-(1-methylcyclopropyl)phenyl)glycyl)piperazin-1-yl)azetidin-1-yl)prop-2-en-1-one] stands “greatly enhanced”.
